Series [1] has as its system bleomycin-induced scleroderma. Briefly: In vivo bleomycin induced scleroderma model. On the set-up: species or system C57BL/6 mice. Conditions: for skin collagen content compared to the vehicle-treated group: skin samples Day 28. On the procedure:
In Vivo Bleomycin Induced Scleroderma Model
Adult male C57BL/6 mice, aged 8-10 weeks, were assigned to groups and allowed to acclimatise for a week. On Day −1, the back skin of the animals was shaved. From Day 0, animals were administered with 100 μl of a 1 mg/ml solution of bleomycin sulphate in phosphate buffered saline (PBS) by intradermal injection in the shaved skin. Injections were repeated in a one square centimeter area every other day for four weeks. A group of ten animals (Control group) was injected with an identical volume of PBS. Animals were weighed at the beginning of the experiment on Day 0 and then twice weekly throughout the study. At the end of the experiment, on Day 28, animals were culled and samples of back skin were taken for further analysis. All groups were n=10; the vehicle was distilled water and the administration volume was 10 ml/kg for oral gavage (p.o.); administration volume was 25 μl for topical application.
Bodyweights were graphed along with the standard error of the mean (SEM); Skin samples (two punch biopsies per animal, 4 mm in diameter each) samples were hydrolyzed and hydroxyproline content of the samples was determined from analysis in a semi-automated process using a continuous flow analyzer. Autoanalyser readings were calibrated against hydroxyproline standards and collagen content calculated.

The subject of the next series is FPP-induced hyperalgesia. Kind of series: In vivo farnesyl pyrophosphate-induced inflammatory (hyperalgesia) model, Randall-Selitto. Conditions: Rattus norvegicus, adult male rats, read-out: In vivo efficacy (minimum effective dose (MED). On the procedure:
In Vivo Farnesyl Pyrophosphate-Induced Inflammatory Model
The FPP-induced hyperalgesia model is a pharmacodynamic rat model which involves inducing pain by injecting FPP, an agonist of LPA5 receptor, into the plantar surface of the hindpaw.
Withdrawal responses were reassessed at 30 and 90 minutes after injection of FPP in the ipsilateral paw.

The next series deals with LPA5 receptor (Homo sapiens (Human), UniProt Q9H1C0). Conditions: reported, Williams et al. (2009); cited from earlier work.
LPA5 receptor, sequence (Q9H1C0 whole entry): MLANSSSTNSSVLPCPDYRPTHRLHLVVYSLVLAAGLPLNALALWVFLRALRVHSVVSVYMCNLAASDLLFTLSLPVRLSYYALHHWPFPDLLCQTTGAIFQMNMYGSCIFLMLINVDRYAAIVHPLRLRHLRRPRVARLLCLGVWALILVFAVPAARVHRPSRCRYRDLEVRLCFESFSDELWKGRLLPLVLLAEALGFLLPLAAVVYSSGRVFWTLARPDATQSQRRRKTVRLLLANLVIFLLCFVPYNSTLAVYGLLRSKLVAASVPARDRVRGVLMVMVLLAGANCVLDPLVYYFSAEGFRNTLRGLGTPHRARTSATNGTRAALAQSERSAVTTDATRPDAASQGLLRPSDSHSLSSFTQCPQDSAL

Consider twelve compounds from patent US10100018B2, “Amide derivatives as lysophosphatidic acid receptor antagonists” (Takeda Pharmaceutical Company Limited, priority 2013, dated 2018).

Where a name gives a salt, the structure may show the parent alone. Read-outs that look alike come from different tables or passages of the source.

For the compound `C[C@H]1C[C@H]2[C@@H]3CCC4=CC(=O)C=C[C@]4(C)[C@@]3(F)[C@@H](O)C[C@]2(C)[C@@]1(O)C(=O)CO` [Betamethasone, reference compound], the “skin collagen content compared to the vehicle-treated group” value in series [1] (administered from Day 0) is “non-significant reduction”. With `O=C(O)c1ccc(CN(CC(F)(F)F)C(=O)c2ccc(Oc3ccccc3F)cc2)cc1` [Example 3, 4-((4-(2-Fluorophenoxy)-N-(2,2,2-trifluoroethyl)benzamido)-methyl)benzoic acid], the minimal effective dose in the series with FPP-induced hyperalgesia (route po) was ≤ 10 mg/kg. With `CC(C)CN(Cc1ccc(C(=O)O)cc1)C(=O)c1ccc(Oc2ccccc2F)cc1` [Example 4, 4-((4-(2-Fluorophenoxy)-N-isobutylbenzamido)methyl)benzoic acid], the minimal effective dose was 1 mg/kg in the series with FPP-induced hyperalgesia (route ip) and ≤ 10 mg/kg in the series on FPP-induced hyperalgesia (route po). Take `O=C(O)c1ccc(CN(CC2CC2)C(=O)c2ccc(Oc3ccccc3F)cc2)cc1` [Example 5, 4-((N-(Cyclopropylmethyl)-4-(2-fluorophenoxy)benzamido)-methyl)benzoic acid]: the minimal effective dose in the series on FPP-induced hyperalgesia (route ip) is 0.3 mg/kg; in the series on FPP-induced hyperalgesia (route po), ≤ 10 mg/kg. Further, the “bodyweight loss compared to the vehicle-treated group” value in series [1] (30 mg/kg p.o. BID, treated groups) is “did not differ”. For the same compound, the “skin collagen content compared to the vehicle-treated group” value in series [1] (administered from Day 0) is recorded as “significant reduction”; in series [1] (administered from Day 14 to Day 28, 30 mg/kg p.o. BID), “significant reduction”.

Consider `CC(C)CCN(Cc1ccc(C(=O)O)cc1)C(=O)c1ccc(Oc2ccccc2F)cc1` [Example 8, 4-((4-(2-Fluorophenoxy)-N-isopentylbenzamido)methyl)benzoic acid], for which, in the series with FPP-induced hyperalgesia (route po), the minimal effective dose worked out at 100 mg/kg. Still for that read-out and setting: the same measure for `O=C(O)c1ccc(CN(Cc2ccccc2)C(=O)c2ccc(Oc3ccccc3F)cc2)cc1` [Example 11, 4-((N-Benzyl-4-(2-fluorophenoxy)benzamido)methyl)benzoic acid]: ≤ 10 mg/kg. On the same count and under the same terms, with `Cc1ccccc1Oc1ccc(C(=O)N(Cc2ccccc2)Cc2ccc(C(=O)O)cc2)cc1` [Example 24, 4-((N-Benzyl-4-(o-tolyloxy)benzamido)methyl)benzoic acid] the figure was 30 mg/kg; with `COc1ccccc1Oc1ccc(C(=O)N(Cc2ccc(C(=O)O)cc2)CC(F)F)cc1` [Example 29, 4-((N-(2,2-Difluoroethyl)-4-(2-methoxyphenoxy)benzamido)-methyl)benzoic acid], 3 mg/kg; with `COc1ccccc1Oc1ccc(C(=O)N(Cc2ccc(C(=O)O)cc2)CC2CC2)cc1` [Example 31, 4-((N-(Cyclopropylmethyl)-4-(2-methoxyphenoxy)benzamido)-methyl)benzoic acid], 1 mg/kg.

`Cc1cccc(F)c1Oc1ccc(C(=O)N(Cc2ccc(C(=O)O)cc2)CC2CC2)cc1` [Example 40, 4-((N-(Cyclopropylmethyl)-4-(2-fluoro-6-methylphenoxy)-benzamido)methyl)benzoic acid]: the minimal effective dose in the series with FPP-induced hyperalgesia (route po) amounted to 60 mg/kg. With `CC(C)=CCC/C(C)=C/CC/C(C)=C/COP(=O)(O)OP(=O)(O)O` [Farnesyl pyrophosphate], at LPA5 receptor, the “selectivity over other LPA receptors” value is 3 fold. For `Cc1ccc(NC(=O)c2ccc(CN3CCN(C)CC3)cc2)cc1Nc1nccc(-c2cccnc2)n1` [Imatinib, Imatinib mesylate, reference compound], the “skin collagen content compared to the vehicle-treated group” value in series [1] (administered from Day 0) was “non-significant reduction”.
